Data as given in patent publication US20050282743A1, “Molecular interactions in cells” (Arbor Vita Corporation, priority 2001, published 2005).
Like-named read-outs stand apart in the source and are kept apart here. Each block holds one molecule with its values, some of them ahead of it. Peptide text beside a SMILES is read from it. * marks the point of attachment. Biotin = O=C1N[C@H]2[C@H](CS[C@H]2CCCCC(=O)*)N1

How the values were obtained:
Assay type in all cases: binding
[1] = biological target: T1, PDZ protein (GST-PDZ fusion) (Homo sapiens, UniProt Q86UL8); assay: G' assay (10 uM PL peptide), results of TABLE 7 and TABLE 12
T1 construct: made in house; host or cells: E. coli (DH5alpha, BL21 or JM109)
Method in brief: (§1)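 Binding classes derive from A450 nm of bound biotin-tagged PL peptide. A score of 5 needs A450 above 4 in more than two repeats.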

[2] = biological target: PDZ-domain polypeptide (GST/PDZ fusion protein); assay: Apparent affinity (Kd) by titration of PL peptide in the G assay
Method in brief: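 A fixed concentration of GST/PDZ fusion protein, 5 ug/ml by default, was mixed in solution with increasing labeled PL peptide (e.g. 0.1 uM-1 mM). Reaction times ranged from 10 minutes to 2 days at 4-37° C. Complexes were separated from free peptide and detected via the label as in the G assay, apparent affinity coming from the saturating concentration.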

[3] = biological target: T2, PDZ protein (GST-PDZ fusion) (Homo sapiens, UniProt Q92796); assay: G' assay (10 uM PL peptide), results of TABLE 7 and TABLE 12; settings: PDZ NeDLG
T2 construct: made in house; host or cells: E. coli (DH5alpha, BL21 or JM109)
T2 sequence (Q92796 1-817): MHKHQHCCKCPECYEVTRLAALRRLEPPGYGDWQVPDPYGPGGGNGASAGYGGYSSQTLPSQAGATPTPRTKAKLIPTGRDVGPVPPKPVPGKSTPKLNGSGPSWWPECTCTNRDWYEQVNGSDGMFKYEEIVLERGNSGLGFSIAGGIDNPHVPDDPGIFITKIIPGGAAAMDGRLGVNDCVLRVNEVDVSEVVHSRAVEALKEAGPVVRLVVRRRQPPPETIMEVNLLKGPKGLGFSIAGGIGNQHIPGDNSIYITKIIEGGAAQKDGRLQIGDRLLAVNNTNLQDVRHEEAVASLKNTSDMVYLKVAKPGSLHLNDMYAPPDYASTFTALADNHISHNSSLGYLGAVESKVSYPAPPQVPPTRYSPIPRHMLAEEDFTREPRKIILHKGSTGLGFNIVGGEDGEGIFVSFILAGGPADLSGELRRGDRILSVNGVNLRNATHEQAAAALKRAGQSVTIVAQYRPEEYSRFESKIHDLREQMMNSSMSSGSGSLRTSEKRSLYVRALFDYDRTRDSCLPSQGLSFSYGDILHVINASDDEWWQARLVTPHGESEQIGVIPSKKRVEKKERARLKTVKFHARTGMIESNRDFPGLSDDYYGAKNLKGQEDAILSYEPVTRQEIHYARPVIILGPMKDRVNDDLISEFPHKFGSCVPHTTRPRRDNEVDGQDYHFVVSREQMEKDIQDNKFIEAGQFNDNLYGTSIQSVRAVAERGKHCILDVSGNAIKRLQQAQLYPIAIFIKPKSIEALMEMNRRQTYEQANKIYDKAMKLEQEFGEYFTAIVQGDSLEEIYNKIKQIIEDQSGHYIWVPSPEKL
Method in brief: as §1

[4] = PDZ atrophin-1 interacting Protein, PDZ Domain 1
[5] = PDZ Atrophin-1 Inter. Prot., PDZ Domain 5
[6] = PDZ SHANK, PDZ Domain 1, read-out: Peptide Optimal Conc (Kd by titration of the PL peptide)

T1 sequence (Q86UL8 whole entry, the tested form may be a part): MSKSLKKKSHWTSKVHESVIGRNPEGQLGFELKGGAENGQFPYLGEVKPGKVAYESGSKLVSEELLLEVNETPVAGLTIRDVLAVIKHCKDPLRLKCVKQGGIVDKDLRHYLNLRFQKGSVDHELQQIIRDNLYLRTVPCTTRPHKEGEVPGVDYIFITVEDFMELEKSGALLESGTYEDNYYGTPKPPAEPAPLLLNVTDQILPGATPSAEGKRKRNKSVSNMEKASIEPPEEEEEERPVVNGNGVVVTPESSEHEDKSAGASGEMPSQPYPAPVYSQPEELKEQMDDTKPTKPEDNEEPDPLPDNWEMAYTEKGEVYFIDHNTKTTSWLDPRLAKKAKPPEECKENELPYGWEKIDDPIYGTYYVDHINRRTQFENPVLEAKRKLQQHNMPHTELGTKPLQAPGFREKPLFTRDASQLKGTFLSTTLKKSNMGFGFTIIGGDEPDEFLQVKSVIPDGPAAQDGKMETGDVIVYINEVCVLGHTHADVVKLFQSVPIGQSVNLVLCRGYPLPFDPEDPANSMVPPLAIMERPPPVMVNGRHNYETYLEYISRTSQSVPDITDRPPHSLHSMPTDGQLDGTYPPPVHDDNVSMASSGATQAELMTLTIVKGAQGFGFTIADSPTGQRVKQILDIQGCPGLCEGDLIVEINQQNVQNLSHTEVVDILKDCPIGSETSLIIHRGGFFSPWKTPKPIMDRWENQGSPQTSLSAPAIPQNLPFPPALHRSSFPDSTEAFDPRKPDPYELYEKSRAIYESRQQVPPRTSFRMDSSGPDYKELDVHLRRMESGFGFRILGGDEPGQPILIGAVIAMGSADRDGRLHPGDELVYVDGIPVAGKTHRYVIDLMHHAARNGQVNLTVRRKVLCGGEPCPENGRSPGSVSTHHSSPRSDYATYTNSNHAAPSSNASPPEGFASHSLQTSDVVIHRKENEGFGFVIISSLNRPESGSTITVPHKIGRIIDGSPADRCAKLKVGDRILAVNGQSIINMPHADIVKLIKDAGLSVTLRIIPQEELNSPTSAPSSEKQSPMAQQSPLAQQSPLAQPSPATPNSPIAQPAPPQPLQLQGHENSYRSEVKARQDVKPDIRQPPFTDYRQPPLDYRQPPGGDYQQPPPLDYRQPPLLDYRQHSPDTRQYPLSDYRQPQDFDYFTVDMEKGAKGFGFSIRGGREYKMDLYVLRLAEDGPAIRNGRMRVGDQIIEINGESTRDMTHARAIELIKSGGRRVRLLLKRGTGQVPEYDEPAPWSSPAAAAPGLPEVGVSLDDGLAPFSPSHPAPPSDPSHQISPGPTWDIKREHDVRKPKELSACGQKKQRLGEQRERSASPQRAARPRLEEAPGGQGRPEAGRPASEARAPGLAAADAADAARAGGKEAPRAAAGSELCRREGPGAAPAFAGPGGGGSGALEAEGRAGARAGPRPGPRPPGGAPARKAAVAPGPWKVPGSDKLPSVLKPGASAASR

Classification [1, 5]: 1 (A450 nm 0-1)
Kd ([2]; PDZ HEMBA 1003117, PDZ Domain 1, titration of the PL peptide, read-out: Peptide Optimal Conc (Kd, dissociation constant)): 4000 nM
Structure (SMILES): CC[C@H](C)[C@H](NC(=O)[C@H](Cc1ccc(O)cc1)NC(=O)[C@H](CC(C)C)NC(=O)[C@H](CCC(N)=O)NC(=O)[C@H](Cc1c[nH]cn1)NC(=O)[C@H](CO)NC(=O)[C@H](C)NC(=O)[C@H](CC(C)C)NC(=O)[C@@H](NC(=O)[C@H](CC(=O)O)NC(=O)[C@H](CCSC)NC(=O)[C@H](Cc1ccccc1)NC(=O)[C@@H]1CCCN1C(=O)[C@H](CCCNC(=N)N)NC(=O)[C@@H](NC(=O)[C@H](CC(C)C)NC(=O)[C@H](CC(N)=O)NC(=O)[C@H](CC(=O)O)NC(=O)[C@@H](NC(=O)[C@H](CO)NC(=O)CCCC[C@@H]1SC[C@@H]2NC(=O)N[C@@H]21)[C@@H](C)O)C(C)C)[C@@H](C)O)C(=O)O [presenilin-2] (Biotin-STDNLVRPFMDTLASHQLYI-OH; C-terminus assumed)

Kd ([2]; PDZ HEMBA 1003117, PDZ Domain 1, read-out: Peptide Optimal Conc (Kd by titration of the PL peptide)): 300 nM
Structure (SMILES): CC(C)C[C@H](NC(=O)[C@H](Cc1c[nH]c2ccccc12)NC(=O)[C@H](Cc1c[nH]cn1)NC(=O)[C@H](CCCNC(=N)N)NC(=O)[C@H](CC(C)C)NC(=O)[C@@H](NC(=O)[C@H](Cc1ccccc1)NC(=O)[C@H](CCC(N)=O)NC(=O)[C@H](CCCNC(=N)N)NC(=O)[C@@H](NC(=O)[C@H](CCC(=O)O)NC(=O)CNC(=O)[C@H](CCCNC(=N)N)NC(=O)[C@H](CC(=O)O)NC(=O)[C@@H](NC(=O)[C@H](CC(C)C)NC(=O)[C@H](CCC(=O)O)NC(=O)[C@H](CCCNC(=N)N)NC(=O)CCCC[C@@H]1SC[C@@H]2NC(=O)N[C@@H]21)C(C)C)C(C)C)[C@@H](C)O)C(=O)N[C@@H](CCCCN)C(=O)N[C@H](C(=O)O)C(C)C [Dopamine transporter (Na+-dependent)] (Biotin-RELVDRGEVRQFTLRHWLKV-OH; C-terminus assumed)

Kd ([2]; PDZ BAI-1, PDZ Domain 3, read-out: Peptide Optimal Conc (Kd by titration of the PL peptide)): 2000 nM
Structure (SMILES): CC(C)C[C@H](NC(=O)[C@H](CC(C)C)NC(=O)[C@@H](NC(=O)[C@H](CC(=O)O)NC(=O)CCCC[C@@H]1SC[C@@H]2NC(=O)N[C@@H]21)[C@@H](C)O)C(=O)N[C@@H](CC(C)C)C(=O)N[C@H](C(=O)N[C@@H](CCC(=O)O)C(=O)N[C@@H](CC(N)=O)C(=O)N[C@@H](CCC(=O)O)C(=O)NCC(=O)N[C@@H](CC(=O)O)C(=O)N[C@@H](CCCCN)C(=O)N[C@H](C(=O)N[C@@H](CCC(=O)O)C(=O)N[C@@H](CCC(=O)O)C(=O)N[C@@H](CCC(N)=O)C(=O)N[C@H](C(=O)N[C@@H](CO)C(=O)N[C@@H](Cc1ccc(O)cc1)C(=O)N[C@H](C(=O)O)C(C)C)C(C)C)[C@@H](C)O)[C@@H](C)O [5H2B_HUMAN] (Biotin-DTLLLTENEGDKTEEQVSYV-OH; C-terminus assumed)

Classification [1, 4]: 2 (A450 nm 1-2)
Classification ([3]; PDZ Domain 1, 2): 1 (A450 nm 0-1)
Classification ([3]; PDZ Domain 3): 1 (A450 nm 0-1)
Kd [2, 6]: 300 nM
Structure (SMILES): CC(C)C[C@H](NC(=O)CNC(=O)[C@@H](NC(=O)[C@H](CO)NC(=O)[C@H](CC(N)=O)NC(=O)[C@H](Cc1ccccc1)NC(=O)CNC(=O)[C@H](C)NC(=O)[C@H](C)NC(=O)[C@H](Cc1ccccc1)NC(=O)[C@@H](NC(=O)CCCC[C@@H]1SC[C@@H]2NC(=O)N[C@@H]21)[C@@H](C)O)[C@@H](C)O)C(=O)N1CCC[C@H]1C(=O)N[C@@H](Cc1c[nH]cn1)C(=O)N[C@@H](CO)C(=O)N[C@H](C(=O)N[C@H](C(=O)N[C@@H](CCCNC(=N)N)C(=O)N[C@H](C(=O)O)C(C)C)[C@@H](C)O)[C@@H](C)O [Neuroligin] (Biotin-TFAAGFNSTGLPHSTTRV-OH; C-terminus assumed)

Classification [1, 5]: 5 (A450 nm of 4 more than 2× repeated)
Kd ([2]; PDZ TAX IP2, PDZ Domain 1, titration of the PL peptide, read-out: Peptide Optimal Conc (Kd, dissociation constant)): 2500 nM
Structure (SMILES): CC(C)C[C@H](NC(=O)[C@H](CC(=O)O)NC(=O)[C@H](CO)NC(=O)[C@H](CCC(=O)O)NC(=O)CNC(=O)[C@H](Cc1ccc(O)cc1)NC(=O)[C@H](CC(C)C)NC(=O)[C@H](C)NC(=O)[C@H](CO)NC(=O)[C@H](CO)NC(=O)[C@H](Cc1ccccc1)NC(=O)[C@H](C)NC(=O)[C@H](C)NC(=O)[C@H](Cc1ccc(O)cc1)NC(=O)[C@H](CC(=O)O)NC(=O)[C@H](CC(C)C)NC(=O)[C@H](C)NC(=O)CNC(=O)[C@@H]1CCCN1C(=O)[C@@H](NC(=O)CCCC[C@@H]1SC[C@@H]2NC(=O)N[C@@H]21)C(C)C)C(=O)O [a-actinin 2] (Biotin-VPGALDYAAFSSALYGESDL-OH; C-terminus assumed)

Continued, molecule first:

Structure (SMILES): CC[C@H](C)[C@H](NC(=O)[C@H](CC(=O)O)NC(=O)[C@H](CCC(=O)O)NC(=O)[C@H](CCCNC(=N)N)NC(=O)[C@@H](NC(=O)CCCC[C@@H]1SC[C@@H]2NC(=O)N[C@@H]21)[C@@H](C)O)C(=O)N[C@@H](Cc1ccc(O)cc1)C(=O)N[C@H](C(=O)N[C@@H](CC(N)=O)C(=O)N[C@@H](Cc1ccc(O)cc1)C(=O)N1CCC[C@H]1C(=O)N[C@H](C(=O)N[C@@H](Cc1ccccc1)C(=O)N[C@@H](CO)C(=O)N[C@@H](CCCNC(=N)N)C(=O)N[C@@H](CCCNC(=N)N)C(=O)N1CCC[C@H]1C(=O)N[C@@H](CCCCN)C(=O)N[C@H](C(=O)N[C@@H](CCCNC(=N)N)C(=O)N[C@H](C(=O)O)C(C)C)[C@@H](C)O)[C@@H](C)O)C(C)C [DNAM-1] (Biotin-TREDIYVNYPTFSRRPKTRV-OH; C-terminus assumed)
Classification [1, 4]: 3 (A450 nm 2-3)
Kd ([2]; PDZ BAI-1, PDZ Domain 2, read-out: Peptide Optimal Conc (Kd by titration of the PL peptide)): 4000 nM

Structure (SMILES): CC[C@H](C)[C@H](NC(=O)[C@H](CO)NC(=O)[C@@H](NC(=O)[C@H](Cc1ccccc1)NC(=O)[C@H](CO)NC(=O)CCCC[C@@H]1SC[C@@H]2NC(=O)N[C@@H]21)[C@@H](C)O)C(=O)N[C@@H](CC(C)C)C(=O)N[C@H](C(=O)N[C@@H](CS)C(=O)N[C@@H](Cc1c[nH]cn1)C(=O)N[C@@H](CCC(N)=O)C(=O)N[C@@H](CCCNC(=N)N)C(=O)N[C@@H](CCCNC(=N)N)C(=O)N[C@H](C(=O)N[C@@H](CCC(N)=O)C(=O)N[C@@H](CCCNC(=N)N)C(=O)N[C@@H](CCCCN)C(=O)N[C@@H](CCC(=O)O)C(=O)N[C@H](C(=O)N[C@H](C(=O)N[C@@H](C)C(=O)O)C(C)C)[C@@H](C)O)[C@@H](C)O)[C@@H](C)O [GluR5-2 (rat)]
Classification [1, 4]: 1 (A450 nm 0-1)
Classification ([3]; PDZ Domain 1, 2): 5 (A450 nm of 4 more than 2× repeated)
Classification ([3]; PDZ Domain 2): 1 (A450 nm 0-1)
Classification ([3]; PDZ Domain 3): 2 (A450 nm 1-2)
Kd ([2]; PDZ BAI-1, PDZ Domain 2, titration of the PL peptide, read-out: Peptide Optimal Conc (Kd, dissociation constant)): 300 nM

Structure (SMILES): CC[C@H](C)[C@H](NC(=O)[C@H](CCC(N)=O)NC(=O)[C@@H](NC(=O)[C@H](Cc1c[nH]cn1)NC(=O)[C@H](CCC(N)=O)NC(=O)[C@H](CC(=O)O)NC(=O)[C@H](CCC(=O)O)NC(=O)[C@H](CC(=O)O)NC(=O)[C@H](Cc1ccccc1)NC(=O)[C@@H]1CCCN1C(=O)[C@H](CCC(=O)O)NC(=O)[C@H](CC(N)=O)NC(=O)[C@H](CCC(=O)O)NC(=O)[C@@H]1CCCN1C(=O)[C@H](CC(=O)O)NC(=O)[C@H](CO)NC(=O)[C@H](CC(=O)O)NC(=O)CCCC[C@@H]1SC[C@@H]2NC(=O)N[C@@H]21)[C@@H](C)O)C(=O)N[C@H](C(=O)N[C@@H](CCCCN)C(=O)N[C@H](C(=O)O)C(C)C)[C@@H](C)O [PTEN]
Classification [1, 5]: 2 (A450 nm 1-2)
Kd [2, 6]: 1500 nM

Structure (SMILES): CC(C)C[C@H](NC(=O)[C@H](C)NC(=O)[C@@H](NC(=O)[C@@H](NC(=O)[C@H](Cc1c[nH]cn1)NC(=O)[C@H](CC(C)C)NC(=O)CNC(=O)[C@H](CCC(N)=O)NC(=O)CNC(=O)CNC(=O)[C@H](C)NC(=O)[C@H](C)NC(=O)[C@H](CCCNC(=N)N)NC(=O)[C@H](C)NC(=O)[C@H](CO)NC(=O)[C@H](CC(=O)O)NC(=O)[C@H](CC(=O)O)NC(=O)[C@H](Cc1c[nH]c2ccccc12)NC(=O)[C@H](C)NC(=O)CCCC[C@@H]1SC[C@@H]2NC(=O)N[C@@H]21)C(C)C)[C@@H](C)O)C(=O)O [LPAP] (Biotin-AWDDSARAAGGQGLHVTAL-OH; C-terminus assumed)
Classification [1, 5]: 2 (A450 nm 1-2)
Kd ([2]; PDZ FLJ 00011, PDZ Domain 1, read-out: Peptide Optimal Conc (Kd by titration of the PL peptide)): 1500 nM
